Source: patent US20060110385A1, “Means and methods for diagnosing and treating affective disorders” (Affectis Pharmaceuticals AG, priority 2003, published 2006)

Key:
[1] = tested on: mice; experiment: Porsolt's forced swim test after long-term paroxetine; assay type: in vivo, mouse; details: paroxetine 10 mg/kg twice per day by gavage, 28 days, male mice
Protocol: Further validation of role of P2X7R in affective disorders was performed by examining its expression pattern in response to stress and treatment with antidepressant drugs. […] In parallel, a control group of mice was given vehicle solution (i.e. without paroxetine) using the same treatment regiment while a second control group of mice was left undisturbed and stress-free (i.e. untreated) during the same period of the experiments. At the end of the long-term treatment, part of the mice of each experimental group were tested in the dark/light box (test of anxiety behaviour) and in the Porsolt's forced swim test (test of depressive-like behaviour) to confirm the effectiveness of the treatment (FIG. 5). […] The other part of the experimental groups (i.e. mice without test experience) were decapitated, brains rapidly removed and frozen at −80° C. until usage.

[2] = target: T1, P2X7R (Rattus norvegicus, UniProt Q64663); details: concentrations of 10 to 300 μM; cited from earlier work
T1 sequence (Q64663 1-595): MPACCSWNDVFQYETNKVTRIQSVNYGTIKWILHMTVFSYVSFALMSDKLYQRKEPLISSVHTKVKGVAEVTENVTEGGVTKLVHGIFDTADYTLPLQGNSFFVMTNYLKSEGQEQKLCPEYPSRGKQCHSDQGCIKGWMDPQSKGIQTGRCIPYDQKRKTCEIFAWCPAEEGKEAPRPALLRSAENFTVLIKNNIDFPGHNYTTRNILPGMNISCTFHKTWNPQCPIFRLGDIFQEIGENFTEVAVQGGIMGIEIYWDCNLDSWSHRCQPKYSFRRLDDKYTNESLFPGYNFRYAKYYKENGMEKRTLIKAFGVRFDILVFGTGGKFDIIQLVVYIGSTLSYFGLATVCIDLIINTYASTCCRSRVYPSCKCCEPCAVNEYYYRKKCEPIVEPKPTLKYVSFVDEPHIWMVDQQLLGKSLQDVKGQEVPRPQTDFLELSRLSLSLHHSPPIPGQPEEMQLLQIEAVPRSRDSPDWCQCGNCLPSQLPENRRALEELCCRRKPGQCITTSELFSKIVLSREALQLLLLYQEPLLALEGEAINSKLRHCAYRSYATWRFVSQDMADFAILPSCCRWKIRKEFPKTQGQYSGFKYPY

[3] = target: T2, P2X7R (Homo sapiens, UniProt Q99572); experiment: Calcium entry (Fluo-4 AM) in HT-22 cells overexpressing human P2X7R; assay type: cell-based; design: expressed in transfected cells; details: 20 μM BzATP or 50 μM tenidap
T2 sequence (Q99572 1-595): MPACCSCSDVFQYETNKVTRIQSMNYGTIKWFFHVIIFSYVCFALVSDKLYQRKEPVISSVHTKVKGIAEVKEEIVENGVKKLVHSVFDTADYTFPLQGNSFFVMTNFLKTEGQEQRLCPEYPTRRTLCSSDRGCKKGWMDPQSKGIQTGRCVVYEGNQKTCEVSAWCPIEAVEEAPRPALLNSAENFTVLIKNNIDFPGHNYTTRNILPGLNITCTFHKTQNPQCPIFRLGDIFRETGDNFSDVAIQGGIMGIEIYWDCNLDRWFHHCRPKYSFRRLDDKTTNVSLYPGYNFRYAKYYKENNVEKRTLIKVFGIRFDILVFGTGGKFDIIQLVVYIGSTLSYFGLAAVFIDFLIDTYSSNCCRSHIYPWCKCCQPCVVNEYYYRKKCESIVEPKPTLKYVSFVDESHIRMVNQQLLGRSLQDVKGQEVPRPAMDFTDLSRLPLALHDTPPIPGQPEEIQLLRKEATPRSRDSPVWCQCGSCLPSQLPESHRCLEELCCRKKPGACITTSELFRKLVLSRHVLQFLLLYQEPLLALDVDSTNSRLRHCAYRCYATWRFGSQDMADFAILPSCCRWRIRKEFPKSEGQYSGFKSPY
Excerpt: Yet another method for identifying P2X7R agonists was devised by generating a immortalised mouse cell line that overexpresses the human P2X7R gene under the control of the human cytomegalovirus (CMV) early promoter/enhancer region. The human P2X7R cDNA was inserted into the pcDNA3.1 vector (Invitrogen) and transfected into the mouse hippocampal cell line HT-22 using Lipofectamine (Invitrogen) according to the manufacturer's specifications. One day after transfection, culture medium containing 500 μg/ml G418 was added to the cells. Resistant clones were separately isolated and cultured 14 days after applying the selection medium.
The agonistic activity of a compound was evaluated by measuring calcium entry in the cells that overexpress the human P2X7R. Cells were cultured in 96 well plates and incubated at 37° C. with 5% CO2 DMEM with 10% foetal calf serum (Gibco) until they reached confluence. Cells were then loaded for one hour with 10 μM of Fluo-4 AM (Molecular Probes). Fluo-4 AM is a fluorescent dye that binds to intracellular calcium. […] Agonist activity was detected by measuring an increase in calcium influx which results in increased binding to Fluo-4 AM and increased fluorescence. Changes in fluorescence signal are measured using a Fluostar Optima plate reader (BMG biotech). […] Thus, both compound stimulated the activity of P2X7R which results in an influx of ions into the cells.

[4] = tested on: mice; experiment: Porsolt's forced swim test after intrahippocampal siRNA; assay type: in vivo, mouse; details: 0.1 nmol/μl, 1 μl per side, dentate gyrus, 24 hours and 48 hours after infusion
Excerpt: According to the observed expression pattern of P2X7R in the hippocampus (FIGS. 9, 10, and 11) and the known involvement of the hippocampus in depression, the dentate gyrus (hippocampus) was selected as target region for siRNA application. Male, naive mice were bilaterally implanted with a guide cannulae (23 gauge, length 8 mm) by means of a stereotactic instrument. The coordinates, in relation to bregma, were −2.0 mm posterior, ±1.0 mm lateral, and −1.0 mm ventral. Following a recovery period of 5 days, the mice were divided into three experimental groups: vehicle (veh), control double stranded RNA (control), and P2X7R specific double stranded siRNA (siRNA). Sequences used for P2X7R siRNA are 5′-[…]-3′ and 5′-[…]-3′. Both sequences and were annealed and injected together as a double stranded RNA. On day 6 after surgery, mice were slightly anaesthetized with Isofluran and injections of siRNA were carried out. […]
The effects of P2X7R inhibition on depressive-like behaviour was assessed 24 hours and 48 hours after infusion of siRNA, control or vehicle according to the standard test paradigm, the Porsolt's forced swim test (Porsolt et al., Arch. Int. Pharmacodym. 229 (1977), 327-336; Porsolt, Rev. Neurosci. 11 (2000), 53-58). […] Compared to vehicle application, no influence of control double stranded RNA (5′-[…]-3′) on floating behaviour (passive stress coping) was detected. […]

[5] = tested on: P2X7R; experiment: P2X7R protein expression by immunohistochemistry after siRNA injection; assay type: in vivo, mouse
Excerpt: At the end of the experiment, the mice were sacrificed and the brains were examined to confirm the location and efficiency of the siRNA injections. For this purpose the brains were cut into sections and the slides were stained by immunohistochemistry using the above mentioned protocols. Brains from mice injected with the specific double stranded siRNA, with control double stranded RNA and with vehicle were examined in parallel. Under these conditions, the specific siRNA directed against P2X7R injected near the dentate gyrus induced on average an 80% inhibition of P2X7R protein expression as compared to the samples from mice injected with vehicle or with control double stranded RNA. […] This inhibition produced behavioural changes indicating a causative role for P2X7R in affective disorders.

[6] = target: T2, P2X7R; details: dose response curve, Y-axis ion current; cited from earlier work
[7] = tested on: P2X7R; details: cited from earlier work
[8] = tested on: DBA/201a mice; experiment: Porsolt's forced swim test after intrahippocampal P2X7R antagonists; assay type: in vivo, mouse; details: 100 nM KN-62 or 10 μM oATP, 1 μl each side, dentate gyrus, 24 hours after injection
Excerpt: In the present example, the P2X7R antagonists were directly injected into the dentate gyrus region of the hippocampus. Briefly, three months old male mice were bilaterally implanted with guide cannulae (23 gauge, length 8 mm) by means of a stereotactic instrument (David Kopf Instruments). The coordinates, in relation to bregma, were −1.5 mm posterior, ±1.0 mm lateral, and −0.8 mm ventral. Mice were allowed to recover for 10 to 13 days after surgery. Following this recovery period, mice were injected with 1 μl vehicle solution (0.01% DMSO, Sigma), or 100 nM KN-62 (Sigma, prepared in 0.01% DMSO), or 10 μM oATP (Sigma, prepared in PBS) in each side of the brain over a period of 60 seconds. All injections were performed using a 9 mm-31 gauge needle inserted into the guide cannulae and connected via tubing to a 10 μl Hamilton syringe.
The behaviour of individual mice was assessed using the Porsolt's forced swim test 24 hours after injection of vehicle solution, KN-62, or oATP. A pre-exposure of 5 minutes to the test was performed 15-17 minutes after administration of vehicle, KN-62, or oATP. A description of the Porsolt's forced swim test is given in example 9. […] Observed results were verified statistically using one-way MANOVA test.

Molecule: Fc1ccc([C@@H]2CCNC[C@H]2COc2ccc3c(c2)OCO3)cc1 [paroxetine]
- passive stress coping behaviour (floating) in the forced swim test [1]: decreased

Molecule: CC(C)NC[C@@H](O)COc1cccc2ccccc12 [D-propanolol]
- opening of the cation channel activity of P2X7R [2]: without affecting the opening of the cation channel activity of P2X7R
- pore-forming activity of P2X7R [2]: inhibit the pore-forming activity of P2X7R

Molecule: NC(=O)N1C(=O)/C(=C(\O)c2cccs2)c2cc(Cl)ccc21 [tenidap, 5-chloro-2,3-dihydro-2-oxo-3-(2-thienylcarbonyl)-indole-1-carboxamide]
- fluorescence intensity (calcium influx, Fluo-4 AM) [3]: rapid increase in fluorescence intensity

Molecule: P2X7R specific siRNA: double stranded siRNA, 5′-GUGGGUCUUGCACAUGAUCTT-3′ annealed with 5′-GAUCAUGUGCAAGACCCACTT-3′ (chemistry not given here)
- passive (floating) behaviour in the forced swim test [4]: significant increase in passive behaviour
- passive (floating) behaviour in the forced swim test ([4]; listed as siRNA targeting P2X7R): increased
- inhibition of P2X7R protein expression ([5]; injected near the dentate gyrus, compared to vehicle or control double stranded RNA): 80%
- local inflammation or infiltration at the hippocampus ([5]; intrahippocampal injection): did not produce any sign of local inflammation or infiltration

Molecule: Nc1ncnc2c1ncn2[C@@H]1O[C@H](COP(=O)(O)OP(=O)(O)OP(=O)(O)O)[C@@H](O)[C@H]1O [ATP]
- EC50 [6]: 300 µM
- levels of ATP required to achieve activation [7]: > 1 mM

Molecule: CC(C)NCC(O)COc1cccc2ccccc12 (racemic) [DL-propanolol]
- opening of the cation channel activity of P2X7R [2]: without affecting the opening of the cation channel activity of P2X7R
- pore-forming activity of P2X7R [2]: inhibit the pore-forming activity of P2X7R

Molecule: CN([C@@H](Cc1ccc(OS(=O)(=O)c2cccc3cnccc23)cc1)C(=O)N1CCN(c2ccccc2)CC1)S(=O)(=O)c1cccc2cnccc12 [KN-62, 1-(N,O-bis[5-isoquinolinesulphonyl]-N-methyl-L-tyrosyl)-4-phenylpiperazine]
- active escape attempts (time, frequency, latency of struggling) [8]: no changes
- passive behaviour (time, frequency, latency of floating) [8]: no changes

Molecule: CC(CCc1ccccc1)NCC(O)c1ccc(O)c(C(N)=O)c1 (stereo not shown) [labetolol]
- opening of the cation channel activity of P2X7R [2]: without affecting the opening of the cation channel activity of P2X7R
- pore-forming activity of P2X7R [2]: inhibit the pore-forming activity of P2X7R
